# “Also recorded” adds a separate entry of the source. Where no end group is shown, it is not given here.
# Tests used:
# EC-SOD +/+ and −/− mice [1] = assay: MAP of conscious mice by telemetry during subcutaneous Ang II infusion; type: in vivo, mouse; settings: for MAP during Ang II infusion: 400 ng/kg per minute subcutaneously, 2 weeks; for Change in MAP with Ang II (mmHg) / MAP on day 12 of Ang II (mmHg): conscious, telemetry
# Source text: For the first series, mice were instrumented with indwelling radiotelemeters (DSI) connected to a cather in a carotid artery and placed within the abdomen 2 weeks before placement of osmotic minipumps as described previously (Kawada N, et al. 2002 J Am Soc Nephrol 13 :2860-2868). Mice were anesthetized with isoflurane (1.0 to 1.5% in 100% O2) before insertion of telemeters and allowed to recover from the surgery for 12 days before the start of BP recording. Basal recordings of MAP and heart rate (HR) were measured continuously by telemetry for 3 days. Thereafter, mice were anesthetized with isoflurane for insertion of osmotic minipumps (Direct Corp) to deliver Ang II (400 ng^−1 kg^−1 per minute) or vehicle (Veh) subcutaneously for 2 weeks. An additional group received a higher pressor rate of Ang II infusion (1000 ng/kg^−1 min^−1, SC). The mean values for 24-hour periods are reported. For subsequent series, mice were prepared without placement of telemeters and Ang II was infused only at the slow pressor rate.
# EC-SOD +/+ and −/− mice [2] = assay: MAP of anesthetized mice (direct arterial cannulation) during Ang II infusion; type: in vivo, mouse; settings: 400 ng·kg^−1·min^−1
# Protocol: Cannulae were placed in the jugular vein (for infusion of fluids and renal function markers), the femoral artery (for direct measurement of MAP and HR), and the bladder (for the collection of urine). A tracheostomy was performed to permit free, uninterrupted respiration of room air. [^3H]-Inulin was infused at 0.1 μCi^−1 hr^−1 for the measurement of glomerular filtration rate. [^14C]-Para-amino hippurate (PAH) was infused at 0.2 μCi^−1 hr^−1. Blood was collected from the femoral artery and renal vein at the end of the collection period to measure hematocrit and renal PAH extraction. Renal plasma flow (RPF) was calculated from the clearance of PAH factored by its renal extraction. Renal blood flow was calculated from RPF factored by (1-hematocrit). Renal vascular resistance (RVR) was calculated from MAP factored by RBF. In separate groups, plasma was obtained, and the aorta and kidneys were harvested and prepared for further analysis.
# [3] = tested on: O2−. generated by xanthine plus xanthine oxidase; assay: Inhibition of O2−. generated by xanthine-xanthine oxidase in vitro (SOD mimetic activity, lucigenin chemiluminescence); type: biochemical; settings: for Maximum inhibition, %: O2−. generated by xanthine-xanthine oxidase in vitro, means ± SE, 5 studies; for O2−. generated by a xanthine-xanthine oxidase reaction extinguished: tested in PBS at 10^−4 M
# Protocol: (§1) The SOD activities of Ns were evaluated in vitro for their efficacy in dampening O2^−. generated by xanthine (25 μmol/l) plus xanthine oxidase (9 IU/ml). Their lipid solubility was assessed by shaking the Ns in a 50:50 mixture of PBS (Ambion, Austin, Tex.) and chloroform (CHCl3; EM Science, Gibbstown, N.J.), taking an aliquot of the PBS phase, evaporating the CHCl3phase to dryness, reconstituting it in PBS, and assessing the SOD activities in the two solutions. O2^−. was assessed by chemiluminescence with 5 μM lucigenin (AutoLumatPlus LB 953; EG&G, Berthold, Germany). The reduction in the stable peak value for chemiluminescence for each N, relative to vehicle, defined the SOD mimetic activity.
# SOD activity by the nitroxides was assessed in vitro (Table 1). […] The ratio of the activity that partitioned into CHCl3 compared with PBS was examined.
# [4] = tested on: spontaneously hypertensive rat (SHR); assay: Acute antihypertensive response (MAP, HR) to graded intravenous doses in anesthetized SHR; type: in vivo; settings: for acute change in MAP and HR: graded intravenous doses (nitroxides 17-270 μmol/kg; SOD 34-540 U/kg); for ED50 (sensitivity) for changes in MAP and HR: intravenous
# Protocol: Experiments were approved by the Georgetown University Animal Care and Use Committee. Male SHR weighing 250-350 g (Taconic, Germantown, N.Y.) were anesthetized with thiobutabarbital (Inactin; Sigma, St. Louis, Mo.) (10 mg/100 g) after halothane (Halocarbon Laboratories, River Edge, N.J.) induction. Rats received 0.9% NaCl at 2 ml/h IV up to the time of receiving drugs to maintain euvolemia. A femoral artery was cannulated with polyethelene (PE)-50 tubing connected to a digital blood pressure analyzer (Micro-Med, Louisville, Ky.). Animals were equilibrated for 45 min. Thereafter, a nitroxide (17 μmol/kg) was infused intravenously over 10 s. The mean arterial pressure (MAP) and heart rate (HR) were recorded over the first 5 min and at 10 and 15 min. This was followed by doses of 54, 72, 174, and 270 μmol/kg under similar conditions. The same protocol was followed with each nitroxide: T, 4-oxo-tempo (OT), 4-amino-tempo (AT), 3-carboxy-peroxyl (3-CTPY) (Aldrich, Milwaukee, Wis.), 3-carbomyl-proxyl (3-CP) (Sigma), and 4-trimethylammonium-2,2,6,6,-tetramethylpiperidine-1-oxyl iodide (CAT-1) (Molecular Probes, Eugene, Oreg.) (FIG. 3). Doses of bovine Cu/Zn SOD (MW 32,500; Oxis Research, Portland, Oreg.) were selected that had equivalent SOD mimetic activity in vitro to the doses of T used for intravenous studies: 34, 110, 140, 260, 350, and 540 U/kg. SOD injection followed a similar protocol to the nitroxides and was compared with vehicle-injected rats. Additional rats received injections of previously boiled SOD as a further control group. Six rats were studied in each group.
# The mean±SE changes in MAP and HR were calculated from the individual dose-response relations. The responsiveness was the maximum effect, and the sensitivity was the expected dose for ED50. Data were analyzed by ANOVA with post hoc testing by the Dunnett test, where appropriate. Statistical significance was taken as P<0.05.
# [5] = measured previously in the literature; cited from earlier work
# cell membranes = settings: cited from earlier work
# [6] = Lipid solubility: partition of SOD activity between CHCl3 and PBS; type: physicochemical; settings: 50:50 PBS and chloroform
# Protocol: as §1
# [7] = tested on: mesenteric resistance arteries (MRAs) from EC-SOD −/− and +/+ mice; assay: Contraction of isolated mesenteric resistance arteries (myograph)
# Protocol: FIG. 19: Responses of mouse isolated mesenteric resistance vessles to endothelin-1: comparison of EC-SOD +/+ with −/−. (A) Contraction to endothelin-1, (B) Superoxide production with endothelin-1. Mean±SEM values (n=6-8 per group). Response to endothelin-1 in vessels incubated for 20 min with vehicle, tempol (10^−4 M), PEG-SOD (100 units·ml^−1), and catalase (300 units·ml^−1). Compared to vehicle, ***, p<0.005.
# (§2) Reactive oxygen spice (ROS) and endothelin-1 (ET-1) contribute to angiotensin-induced hypertension. We used isolated mesenteric resistance arteries (MRAs) from EC-SOD knockout (−/−) mice (n=10) and EC-SOD wild type (+/+) mice (n=10), as a model to investigate the hypothesis that microvascular ET-1 and superoxide anion (O2.^−) interact to enhance contractility. Tension and O2.^− were quantitated in real time in dihydroethidium (DHE)-loaded MRAs in a myograph equipped with a dual-emission photon detection fluorescence system to measure ethidium (Eth): DHE ratio (E/D) as a direct readout of O2.^− activity. […] PEG-SOD normalized augmented ET-1 contraction (64±4% vs 71±3%; p=ns) and prevent an increase in E/D ratio in MRAs from −/− (0.6±0.5 vs 0.5±0.8, p=ns). In summary, ET-1 generates microvascular O2.^− that enhances its vasoconstrictive action.
# [8] = tested on: mesenteric resistance arteries (MRAs) from EC-SOD −/− and +/+ mice; assay: Superoxide as ethidium:DHE ratio (E/D) in dihydroethidium-loaded mesenteric resistance arteries
# Source text: as §2
# A current study contrasts the responses to endothelin-1 (ET-1) in mesenteric resistance vessels from EC-SOD (−/−) and (+/+) mice. […] Parallel studies of vascular superoxide in dihydroethidium-loaded vessels show enhanced conversion to ethidium, indicating enhanced superoxide formation, in vessels from EC-SOD −/−mice. […] We conclude that in the model system of SOD deficiency caused by gene deletion of EC-SOD in the mouse, tempol can correct enhanced contractions and enhanced oxidative stress. It is thereby envisioned as being effective in preventing hypertension and cardiovascular disease.
# [9] = cited from earlier work
# [10] = EC-SOD (+/+), 400 ng·kg^−1·min^−1
# [11] = EC-SOD (+/+), 1000 ng·kg^−1·min^−1
# [12] = EC-SOD (−/−), 400 ng·kg^−1·min^−1
# [13] = EC-SOD (−/−), 1000 ng·kg^−1·min^−1
compound,measurement,setting,value
"angiotensin II (DRVYIHPF; Angiotensin-2; UniProt P01019 25-32, looked up) [Ang II, pressor peptide infused subcutaneously by osmotic minipump]",MAP during Ang II infusion,EC-SOD +/+ and −/− mice [1]; EC-SOD +/+,125±3 mm Hg
same,MAP during Ang II infusion,EC-SOD +/+ and −/− mice [1]; EC-SOD −/−,124±3 mm Hg
same,Change in MAP with Ang II (mmHg),EC-SOD +/+ and −/− mice [1]; [10],+24.4 ± 3.45 mmHg
same,MAP on day 12 of Ang II (mmHg),EC-SOD +/+ and −/− mice [1]; [10],134.6 ± 3.3 mmHg
same,Change in MAP with Ang II (mmHg),EC-SOD +/+ and −/− mice [1]; [11],+35.7 ± 6.5 mmHg
same,MAP on day 12 of Ang II (mmHg),EC-SOD +/+ and −/− mice [1]; [11],149.1 ± 4.3 mmHg
same,Change in MAP with Ang II (mmHg),EC-SOD +/+ and −/− mice [1]; [12],+16.7 ± 4.42 mmHg
same,MAP on day 12 of Ang II (mmHg),EC-SOD +/+ and −/− mice [1]; [12],132.5 ± 4.1 mmHg
same,Change in MAP with Ang II (mmHg),EC-SOD +/+ and −/− mice [1]; [13],+30.7 ± 3.3 mmHg
same,MAP on day 12 of Ang II (mmHg),EC-SOD +/+ and −/− mice [1]; [13],149.9 ± 5.4 mmHg
same,MAP on day 12 of Ang II (mmHg),EC-SOD +/+ and −/− mice [2]; EC-SOD (+/+),92.1 ± 3.0 mmHg
same,MAP on day 12 of Ang II (mmHg),EC-SOD +/+ and −/− mice [2]; EC-SOD (−/−),98.4 ± 2.6 mmHg
"CC1(C)CC(C(N)=O)C(C)(C)N1[O] (stereo not shown) [Compound 3-CP, 3-carbomoyl-proxyl]","Maximum inhibition, %",[3],82 ± 1 %
same,O2−. generated by a xanthine-xanthine oxidase reaction extinguished,[3],significantly lower fraction
same,acute change in MAP and HR,[4],ineffective; also recorded: did not; also recorded: does not reduce BP in vivo
"CC1(C)CC([N+](C)(C)C)CC(C)(C)N1[O].[I-] [CAT-1, 4-trimethylammonium-2,2,6,6,-tetramethylpiperidine-1-oxyl iodide]","Maximum inhibition, %",[3],42 ± 2 %
same,O2−. generated by a xanthine-xanthine oxidase reaction extinguished,[3],significantly lower fraction
same,maximal reduction in MAP (comparison between compounds),[4]; graded intravenous doses,significantly more modest reductions
same,acute change in MAP and HR,[4],graded reductions; also recorded: decreased MAP and HR acutely
same,ED50 (sensitivity) for changes in MAP and HR,[4],lowest ED50
same,redox midpoint potential E1/2,[5],significantly higher values still
same,permeation of cells,cell membranes,does not permeate cells
"CC1(C)CC(N)CC(C)(C)N1[O] [AT, 4-amino-2,2,6,6-tetramethylpiperidine-1-oxyl]","Maximum inhibition, %",[3],88 ± 2 %
same,O2−. generated by a xanthine-xanthine oxidase reaction extinguished,[3],88%
same,maximal reduction in MAP (comparison between compounds),[4]; graded intravenous doses,greatest reductions in MAP
same,acute change in MAP and HR,[4],graded reductions; also recorded: decreased MAP and HR acutely
same,ED50 (sensitivity) for changes in MAP and HR,[4],highest ED50s
same,redox midpoint potential E1/2,[5],820 mV
"CC1(C)CC(=O)CC(C)(C)N1[O] [OT, 4-oxo-tempo]","Maximum inhibition, %",[3],62 ± 2 %
same,O2−. generated by a xanthine-xanthine oxidase reaction extinguished,[3],significantly lower fraction
same,ratio of the activity that partitioned into CHCl3 compared with PBS (partition ratio),[6],greatest partition ratio
same,maximal reduction in MAP (comparison between compounds),[4]; graded intravenous doses,significantly more modest reductions
same,reduction in HR (comparison between compounds),[4]; graded intravenous doses,smaller
same,acute change in MAP and HR,[4],graded reductions; also recorded: decreased MAP and HR acutely
same,ED50 (sensitivity) for changes in MAP and HR,[4],highest ED50s
same,redox midpoint potential E1/2,[5],913 mV
CNC[C@H](O)c1cccc(O)c1 [Phenylephrine],"Phenylephrine-induced contractions, EC-SOD −/− versus +/+",[7]; MRAs from both groups,similar
same,E/D ratio with phenylephrine,[8]; MRAs from both groups,did not change
"endothelin-1 (CSCSSLMDKECVYFCHLDIIW; ends and bridges not checked; cysteine pairing not given here; UniProt P05305 53-73, looked up) [ET-1, vasoconstrictor peptide used to contract mesenteric resistance arteries]",ET-1 induced contraction,[7]; MRAs from EC-SOD +/+ mice,66±5%
same,ET-1 induced contraction,[7]; MRAs from EC-SOD −/− mice,100±3%
same,E/D ratio (ethidium:DHE) with ET-1,[8]; MRAs from EC-SOD +/+ mice,0.5±0.8
same,E/D ratio (ethidium:DHE) with ET-1,[8]; MRAs from EC-SOD −/− mice,3.7±0.5
"Cu/Zn SOD: bovine Cu/Zn SOD (MW 32,500; Oxis Research)",delay of MAP lowering versus vehicle,[4]; graded intravenous doses,90 to 110 min
same,acute change in MAP and HR,[4]; listed as SOD,no acute effect; also recorded: did not
same,injected SOD associated with the kidney,[9]; 45 min after injection,~10%
same,plasma half time,[9]; after intravenous administration,6 min
